The text below walks through data of patent US7321027B2, “Small technetium-99m and rhenium labeled agents and methods for imaging tumors” (President and Fellows of Harvard College, priority 2000, dated 2008).

One assay deals with B16/F0 cells. The experiment in a line: Tumor-cell uptake in the presence of DTG. The format is cell-based, murine. Conditions: DTG 90 μM, 30 min prior, 37° C. The source says:
J. Labelled Compd. Radiopharm. 1994, 35, 242-244; Vilner, B. J.; John, C. S.; Bowen, W. D. Sigma-I and Sigma-2 Receptors Are Expressed in a Wide Variety of Human and Rodent Tumor Cell Lines. Cancer Res. 1995, 55, 408-413; and John, C. S.; Vilner, B. J.; Gulden, M. E.; Efange, S. M. N.; Langason, R. B.; Moody, T. W.; Bowen, W. D. Synthesis and Pharmacological Characterization of 4-[^125I]-N-(N-Benzylpiperidin-4-yl)-4-iodobenzamide: A High Affinity σ Receptor Ligand for Potential Imaging of Breast Cancer. […] Pre-incubation of the tumor cells with DTG (90 μM), 30 min prior to the uptake experiments with the ^99mTc-complexes, yields a lower tumor-cell uptake for complexes Tc-(Compound A) (29% less), Tc-(Compound C) (33% less), and Tc-(Compound D) (32% less) at 37° C. (FIG. 4). Additional dose-response experiments conducted with intact B16/F0 cells at 37° C. with Tc-(Compound C) and DTG as the inhibitor (FIG. 3) show a DTG concentration-dependent decrease in the uptake of the complex.
The effect of the inhibitor DTG on cell uptake of these complexes was studied by addition of the inhibitor at various concentrations to the cell suspension 30 min prior to addition of the ^99mTc-complexes. Fresh DTG stock solutions were made by dissolving DTG (3.0 mg, 12.5 μmol) in 0.38 mL PBS and 0.12 mL hydrochloric acid (0.1 N) and subjecting the mixture to ultrasound until a clear solution was obtained, followed by the addition of 0.50 mL FBS to produce a neutral solution at pH 7.4. The stock solutions were diluted by an appropriate amount of S-MEM, and aliquots between 5 μL and 25 μL were added to the cell suspension such that the final concentration of DTG was between 0.02 μM and 120 μM in a total cell suspension volume of 350 μL.

Assay [1] has as its system MCF-7 human breast cancer cell line. The assay is described as follows: In-vitro tumor-cell uptake, breast cancer cells. Format: cell-based. Conditions: 37° C., MCF-7 cell line. On the procedure:
In-Vitro Tumor-Uptake Studies. Tumor-cell uptake studies in B16/F0 murine melanoma cells were performed with complexes Tc-(Compound A-D and H-M) at 37° C. and 4° C. Additionally, tumor-cell uptake of complex Tc-(Compound A) was investigated in another rapidly dividing MCF-7 human breast cancer cell line.
In-Vitro Cell Studies. […] After being washed with 12 mL Dulbecco's Phosphate-Buffered Saline (PBS) (Gibco), pH 7.2 (Ca^2+- and Mg^2+-free; g/L KCl, 0.20; KH2PO4, 0.20; NaCl, 8.00; Na2HPO4, 1.15), the cells were counted and resuspended in 8 mL S-MEM (Gibco) (Ca^2+ free, with reduced Mg^2+ content) and stored at 4° C. until use.
For in-vitro tumor-cell accumulation studies, 5×10^6 cells in polypropylene test tubes were incubated at 37° C. or 4° C., with intermittent agitation with 1-2 μCi (5 μL) ^99mTc-complex Tc-(Compound A-D) in a total volume of 350 μL S-MEM. […] Both fractions were counted for radioactivity in a γ-counter (WALLAC, 1480 WIZARD 3″™). The amount of supernatant in the cell pellet was determined to be <1% in separate experiments. The percentage cell uptake of the ^99mTc-complex was calculated as: % uptake=[cpm(pellet)]/[cpm(pellet)+cpm(supernatant)]×100

Take `CCN(CC)CCN1CC[S][99Tc]2(=[O])[S]CC[N]2C(=O)C1` (centres unmarked) [Tc-(Compound A)]: in the assay on B16/F0 cells, the “lower tumor-cell uptake after pre-incubation with DTG” value worked out at 29%. This compound yielded a maximum cell uptake in assay [1] of 6%.
